Biological target: T1, STING (Homo sapiens, UniProt Q86WV6, G230A/H232R/R293Q/R71H)
T1 construct: host or cells: THP1-Dual KO-IFNAR2 cells
Assay: STING reporter assay (luciferase) in THP1-Dual KO-IFNAR2 cells stimulated with 2′3′cGAMP
Format: cell-based
Conditions: 2′3′cGAMP 15 μM final, 24 h, luciferase reporter activity, read-out: Pharmaron, THP1_IFNAR2 STING 24 h Luci Normalized: GeoMean EC50
Procedure: STING pathway activation by the compounds described herein was measured using TTIP1-Dual™ cells (KO-IFNAR2).
TTIP1-Dual™ KO-IFNAR2 Cells (obtained from invivogen) were maintained in RPMI, 10% FCS, 5 ml P/S, 2 mM L-glut, 10 mM Hepes, and 1 mM sodium pyruvate. Compounds were spotted in empty 384 well tissue culture plates (Greiner 781182) by Echo for a final concentration of 0.0017-100 μM. Cells were plated into the TC plates at 40 μL per well, 2×10E6 cells/mL. For activation with STING ligand, 2′3′cGAMP (MW 718.38, obtained from Invivogen), was prepared in Optimem media.
The following solutions were prepared for each 1×384 plate: • Solution A: 2 mL Optimem with one of the following stimuli: • […] • Solution B: 2 mL Optimem with […] Lipofectamine 2000→Incubate 5 min at RT
2 mL of solution A and 2 ml Solution B was mixed and incubated for 20 min at room temperature (RT). 20 μL of transfection solution (A+B) was added on top of the plated cells, with a final 2′3′cGAMP concentration of 15 μM. The plates were then centrifuged immediately at 340 g for 1 minute, after which they were incubated at 37° C., 5% CO2, >98% humidity for 24 h. Luciferase reporter activity was then measured. EC50 values were calculated by using standard methods known in the art.
Luciferase reporter assay: 10 μL of supernatant from the assay was transferred to white 384-plate with flat bottom and squared wells. One pouch of QUANTI-Luc™ Plus was dissolved in 25 mL of water. 100 μL of QLC Stabilizer per 25 mL of QUANTI-Luc™ Plus solution was added. 50 μL of QUANTI-Luc™ Plus/QLC solution per well was then added. Luminescence was measured on a Platereader (e.g., Spectramax I3X (Molecular Devices GF3637001)).
Luciferase reporter activity was then measured. EC50 values were calculated by using standard methods known in the art.

T1 sequence (Q86WV6 whole entry R71H/G230A/H232R/R293Q): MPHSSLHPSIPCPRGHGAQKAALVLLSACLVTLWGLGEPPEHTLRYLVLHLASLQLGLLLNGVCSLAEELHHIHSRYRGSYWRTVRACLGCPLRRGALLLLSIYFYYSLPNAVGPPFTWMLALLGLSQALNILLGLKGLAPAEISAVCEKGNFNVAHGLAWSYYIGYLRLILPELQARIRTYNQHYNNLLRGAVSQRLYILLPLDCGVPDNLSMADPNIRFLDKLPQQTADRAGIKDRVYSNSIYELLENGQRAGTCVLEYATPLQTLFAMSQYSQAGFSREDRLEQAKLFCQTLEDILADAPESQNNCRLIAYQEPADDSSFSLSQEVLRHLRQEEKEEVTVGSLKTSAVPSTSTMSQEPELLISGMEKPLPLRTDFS

| SMILES | EC50 |
| --- | --- |
| O=C(CC1CC1)Nc1c[nH]c2ccc(O[C@H]3C[C@@H](c4ccc(C(F)(F)F)cc4)C3)cc12 [Compound 102, 2-cyclopropyl-N-(5-((1s,3s)-3-(4-(trifluoromethyl)phenyl)cyclobutoxy)-1H-indol-3-yl)acetamide] | 0.04 to 0.2 µM |
| O=C(Nc1c[nH]c2ccc(O[C@H]3C[C@H](c4ccc(C(F)(F)F)cc4)C3)cc12)C1CC12CCC2 (stereo partly drawn) [Compound 230, N-{5-[(1R,3R)-3-[4-(trifluoromethyl)phenyl]cyclobutoxy]-1H-indol-3-yl}spiro[2.3]hexane-1-carboxamide] | 0.04 to 0.2 µM |
| O=C(Nc1c[nH]c2ccc(CCOc3ccc(C(F)(F)F)cc3)cc12)C12CC(C1)C2 [Compound 135] | 0.2 to 1 µM |
| CC12CC(C(=O)Nc3c[nH]c4ccc(OCC[C@@H]5C[C@@H]6CN(CC(F)(F)F)C[C@@H]6C5)cc34)(C1)C2 [Compound 142, 3-methyl-N-(5-(2-((3aR,5r,6aS)-2-(2,2,2-trifluoroethyl)octahydrocyclopenta[c]pyrrol-5-yl)ethoxy)-1H-indol-3-yl)bicyclo[1.1.1]pentane-1-carboxamide] | 0.2 to 1 µM |
| O=C(Nc1c[nH]c2ccc(O[C@H]3C[C@@H](c4ccc(C(F)(F)F)cc4)C3)cc12)C12CC(C1)C2 [Compound 173, N-(5-((1s,3s)-3-(4-(trifluoromethyl)phenyl)cyclobutoxy)-1H-indol-3-yl)bicyclo[1.1.1]pentane-1-carboxamide] | 0.2 to 1 µM |
| O=C(Nc1c[nH]c2ccc(CCOc3ccc(C(F)(F)F)cc3)cc12)C1CC12CCC2 (stereo not shown) [Compound 104, N-(5-(2-(4-(trifluoromethyl)phenoxy)ethyl)-1H-indol-3-yl)spiro[2.3]hexane-1-carboxamide] | 0.2 to 1 µM |
| CC12CC(C(=O)Nc3c[nH]c4ccc(O[C@H]5C[C@H](c6ccc(C(F)(F)F)cc6)C5)cc34)(C1)C2 [Compound 238, 3-methyl-N-{5-[(1R,3R)-3-[4-(trifluoromethyl)phenyl]cyclobutoxy]-1H-indol-3-yl}bicyclo[1.1.1]pentane-1-carboxamide] | 0.04 to 0.2 µM |
| O=C(Nc1c[nH]c2ccc(O[C@H]3C[C@H](c4ccc(C(F)(F)F)cc4)C3)cc12)c1cccnc1 [Compound 227, N-{5-[(1R,3R)-3-[4-(trifluoromethyl)phenyl]cyclobutoxy]-1H-indol-3-yl}pyridine-3-carboxamide] | 0.2 to 1 µM |
| O=C(Nc1c[nH]c2ccc(O[C@H]3C[C@H](c4ccc(C(F)(F)F)cc4)C3)cc12)c1cncs1 [Compound 235, N-{5-[(1R,3R)-3-[4-(trifluoromethyl)phenyl]cyclobutoxy]-1H-indol-3-yl}-1,3-thiazole-5-carboxamide] | 0.2 to 1 µM |
| O=C(Nc1c[nH]c2ccc(OCc3ccc(C(F)(F)F)cc3)cc12)C1CC12CC2 (stereo not shown) [Compound 101, N-(5-((4-(trifluoromethyl)benzyl)oxy)-1H-indol-3-yl)spiro[2.2]pentane-1-carboxamide] | 0.2 to 1 µM |
| O=C(Nc1c[nH]c2ccc(O[C@H]3C[C@H](c4ccc(C(F)(F)F)cc4)C3)cc12)c1nccs1 [Compound 232, N-{5-[(1R,3R)-3-[4-(trifluoromethyl)phenyl]cyclobutoxy]-1H-indol-3-yl}-1,3-thiazole-2-carboxamide] | 0.04 to 0.2 µM |
| O=C(Nc1c[nH]c2ccc(O[C@H]3C[C@@H](c4ccc(C(F)(F)F)cc4)C3)cc12)C1CC2(CC2)C1 [Compound 156, N-(5-((1s,3s)-3-(4-(trifluoromethyl)phenyl)cyclobutoxy)-1H-indol-3-yl)spiro[2.3]hexane-5-carboxamide] | 0.2 to 1 µM |
| O=C(Nc1c[nH]c2ccc(O[C@H]3C[C@H](c4ccc(C(F)(F)F)cc4)C3)cc12)C1CC2(COC2)C1 [Compound 211, N-{5-[(1R,3R)-3-[4-(trifluoromethyl)phenyl]cyclobutoxy]-1H-indol-3-yl}-2-oxaspiro[3.3]heptane-6-carboxamide] | 0.04 to 0.2 µM |
| O=C(Nc1c[nH]c2ccc(O[C@H]3C[C@@H](c4ccc(C(F)(F)F)nc4)C3)cc12)c1ccc(C(F)(F)F)cc1 [Compound 214, 4-(trifluoromethyl)-N-(5-(cis-3-(6-(trifluoromethyl)pyridin-3-yl)cyclobutoxy)-1H-indol-3-yl)benzamide] | 0.04 to 0.2 µM |

More lines, now with the values ahead:

| EC50 | SMILES |
| --- | --- |
| 0.2 to 1 µM | O=C(Nc1c[nH]c2ccc(OCC[C@@H]3C[C@@H]4CN(CC(F)(F)F)C[C@@H]4C3)cc12)c1nccs1 [Compound 188, N-(5-(2-((3aR,5r,6aS)-2-(2,2,2-trifluoroethyl)octahydrocyclopenta[c]pyrrol-5-yl)ethoxy)-1H-indol-3-yl)thiazole-2-carboxamide] |
| 0.2 to 1 µM | O=C(Nc1c[nH]c2ccc(OCC[C@@H]3C[C@@H]4CN(CC(F)(F)F)C[C@@H]4C3)cc12)C1CC2(CCC2)C1 [Compound 157, N-(5-(2-((3aR,5r,6aS)-2-(2,2,2-trifluoroethyl)octahydrocyclopenta[c]pyrrol-5-yl)ethoxy)-1H-indol-3-yl)spiro[3.3]hexane-2-carboxamide] |
| 0.04 to 0.2 µM | O=C(Nc1c[nH]c2ccc(OCCc3ccc(C(F)(F)F)cc3)cc12)C1CC2(CCC2)C1 [Compound 191, N-(5-(4-(trifluoromethyl)phenethoxy)-1H-indol-3-y)spiro[3.3]heptane-2-carboxamide] |
| 0.2 to 1 µM | O=C(Nc1c[nH]c2ccc(OCCc3ccc(C(F)(F)F)cc3)cc12)c1cn(-c2cnc(N3CCC(F)(F)CC3)c(F)c2)nn1 [Compound 245, 1-(6-(4,4-difluoropiperidin-1-yl)-5-fluoropyridin-3-yl)-N-(5-(4-(trifluoromethyl)phenethoxy)-1H-indol-3-yl)-1H-1,2,3-triazole-4-carboxamide] |
| 0.2 to 1 µM | O=C(Nc1c[nH]c2ccc(CCOc3ccc(C(F)(F)F)cc3)cc12)C1CC2(CC2)C1 [Compound 198, N-(5-(2-(4-(trifluoromethyl)phenoxy)ethyl)-1H-indol-3-yl)spiro[2.3]hexane-5-carboxamide] |
| 0.2 to 1 µM | O=C(Nc1c[nH]c2ccc(OCC[C@@H]3C[C@@H]4CN(CC(F)(F)F)C[C@@H]4C3)cc12)C12CC(F)(C1)C2 [Compound 185, 3-fluoro-N-(5-(2-((3aR,5r,6aS)-2-(2,2,2-trifluoroethyl)octahydrocyclopenta[c]pyrrol-5-yl)ethoxy)-1H-indol-3-yl)bicyclo[1.1.1]pentane-1-carboxamide] |
| 0.2 to 1 µM | O=C(Nc1c[nH]c2ccc(OCc3ccc(C(F)(F)F)cc3)cc12)C1CC2(CCC2)C1 [Compound 151, N-(5-((4-(trifluoromethyl)benzyl)oxy)-1H-indol-3-yl)spiro[3.3]heptane-2-carboxamide] |
| 1 to 5 µM | O=C(Nc1c[nH]c2ccc(OCC[C@@H]3C[C@@H]4CN(CC(F)(F)F)C[C@@H]4C3)cc12)c1ccccn1 [Compound 183, N-(5-(2-((3aR,5r,6aS)-2-(2,2,2-trifluoroethyl)octahydrocyclopenta[c]pyrrol-5-yl)ethoxy)-1H-indol-3-yl)picolinamide] |
| 0.2 to 1 µM | O=C(Nc1c[nH]c2ccc(OCc3ccc(C(F)(F)F)cc3)cc12)c1cncs1 [Compound 154, N-(5-((4-(trifluoromethyl)benzyl)oxy)-1H-indol-3-yl)thiazole-5-carboxamide] |
| 0.04 to 0.2 µM | Cn1ccnc1C(=O)Nc1c[nH]c2ccc(OCCc3ccc(C(F)(F)F)cc3)cc12 [Compound 146, 1-methyl-N-(5-(4-(trifluoromethyl)phenethoxy)-1H-indol-3-yl)-1H-imidazole-2-carboxamide] |
| 0.2 to 1 µM | O=C(Nc1c[nH]c2ccc(OCc3ccc(C(F)(F)F)cc3)cc12)c1cccnc1 [Compound 148, N-(5-((4-(trifluoromethyl)benzyl)oxy)-1H-indol-3-yl)nicotinamide] |
| 0.2 to 1 µM | O=C(Nc1c[nH]c2ccc(OCC[C@@H]3C[C@@H]4CN(CC(F)(F)F)C[C@@H]4C3)cc12)c1ccncc1 [Compound 179, N-(5-(2-((3aR,5r,6aS)-2-(2,2,2-trifluoroethyl)octahydrocyclopenta[c]pyrrol-5-yl)ethoxy)-1H-indol-3-yl)isonicotinamide] |
| 0.2 to 1 µM | O=C(Nc1c[nH]c2ccc(OCC[C@@H]3C[C@@H]4CN(CC(F)(F)F)C[C@@H]4C3)cc12)c1cscn1 [Compound 193, N-(5-(2-((3aR,5r,6aS)-2-(2,2,2-trifluoroethyl)octahydrocyclopenta[c]pyrrol-5-yl)ethoxy)-1H-indol-3-yl)thiazole-4-carboxamide] |
| 0.2 to 1 µM | O=C(Nc1c[nH]c2ccc(OCC[C@@H]3C[C@@H]4CN(CC(F)(F)F)C[C@@H]4C3)cc12)C12CC(C1)C2 [Compound 186, N-(5-(2-((3aR,5r,6aS)-2-(2,2,2-trifluoroethyl)octahydrocyclopenta[c]pyrrol-5-yl)ethoxy)-1H-indol-3-yl)bicyclo[1.1.1]pentane-1-carboxamide] |

From US20230250060A1 (IFM Due, Inc., priority 2022, published 2023)
